A short description of the assay: Inhibition of Na+K+ATpase from pig cortex. Also noted: species or system Sus scrofa.

pIC50: −log10 of the molar value.

Turning to `C[C@@H]1O[C@@H](O[C@H]2C[C@@H](O)[C@]3(CO)[C@H]4[C@H](O)C[C@]5(C)[C@@H](C6=CC(=O)OC6)CC[C@]5(O)[C@@H]4CC[C@]3(O)C2)[C@H](O)[C@H](O)[C@H]1O` [OUABAIN], the pIC50 (in general, −log10 of the IC50, conventionally taken in molar units) was 6.22.

Source of the values: ChEMBL document CHEMBL1151616, “Na+-K+-ATPase inhibitors from Lysimachia japonica” (J Nat Prod, 1984).
